From BigSolDB 2.1

CN(C)[C@@H]1C(=O)C(C(N)=O)=C(O)[C@@]2(O)C(=O)C3=C(O)c4c(O)cccc4C[C@H]3C[C@@H]12
solubility (mole fraction)
Conditions | 278.15 K | 283.15 K | 288.15 K | 293.15 K | 298.15 K | 303.15 K | 308.15 K | 313.15 K | 318.15 K
in 1,4-dioxane | – | – | 0.00134 | 0.00159 | 0.00188 | 0.0022 | 0.00255 | 0.00294 | 0.00336
in acetonitrile | 0.000118 | 0.00013 | 0.000143 | 0.000156 | 0.000171 | 0.000188 | 0.000206 | 0.000226 | 0.000248
in cyclohexane | 7.64e-06 | 1.05e-05 | 1.42e-05 | 1.93e-05 | 2.47e-05 | 3.03e-05 | 3.85e-05 | 4.74e-05 | 5.7e-05
in ethanol | 0.000131 | 0.000144 | 0.000158 | 0.000172 | 0.000188 | 0.000207 | 0.000225 | 0.000244 | 0.000264
in ethyl acetate | 0.00032 | 0.000392 | 0.000464 | 0.000551 | 0.000649 | 0.000761 | 0.000882 | 0.00103 | 0.00119
in isobutanol | 3.76e-05 | 4.32e-05 | 4.9e-05 | 5.53e-05 | 6.3e-05 | 7.17e-05 | 8.14e-05 | 9.21e-05 | 0.000103
in isopropanol | 4.02e-05 | 4.65e-05 | 5.37e-05 | 6.18e-05 | 7.05e-05 | 8.05e-05 | 9.19e-05 | 0.000105 | 0.000118
in methanol | 0.000166 | 0.000183 | 0.0002 | 0.000218 | 0.000237 | 0.000258 | 0.000282 | 0.000306 | 0.000332
in n-butanol | 4.76e-05 | 5.56e-05 | 6.47e-05 | 7.34e-05 | 8.37e-05 | 9.51e-05 | 0.000107 | 0.000121 | 0.000135
in n-hexane | 3.64e-05 | 4.07e-05 | 4.51e-05 | 5.06e-05 | 5.66e-05 | 6.34e-05 | 7.17e-05 | 8.08e-05 | 8.98e-05
in n-octanol | 3.16e-05 | 3.56e-05 | 3.99e-05 | 4.48e-05 | 5.08e-05 | 5.71e-05 | 6.47e-05 | 7.21e-05 | 8.04e-05
in n-propanol | 0.000101 | 0.000106 | 0.000112 | 0.00012 | 0.000128 | 0.000136 | 0.000145 | 0.000155 | 0.000166
